Values quoted from earlier work, collected in patent US8846662B2, “Benzodiazepine and/or pharmaceutical composition comprising benzodiazepine derivatives” (Dr. Franz Koehler Chemie GmbH, priority 2008, dated 2014).

Test system: specific binding sites in the central nervous system
Settings: background statement

In the case of `O=C1Nc2ccc(Cl)cc2C(c2ccccc2Cl)=NC1O` (centres unmarked) [Lorazepam, 7-chloro-5-(o-chlorophenyl)-1,3-dihydro-3-hydroxy-2H-1,4-benzodiazepin-2-one], the “Affinity for specific binding sites in the central nervous system” value is given as “very high affinity”.
For `CN1C(=O)C(O)N=C(c2ccccc2Cl)c2cc(Cl)ccc21` (centres unmarked) [Lormetazepam, 9-chloro-6-(2-chlorophenyl)-4-hydroxy-2-methyl-2,5-diazabicyclo-[5.4.0]undeca-5,8,10,12-tetraen-3-one], the “Affinity for specific binding sites in the central nervous system” value is given as “very high affinity”.
